Laboratory results taken from patent publication US8980906B2, “Pyridonemorphinan analogs and biological activity on opioid receptors” (Purdue Pharma L.P., priority 2012, dated 2015).

Assays:
Format in all cases: biochemical
κ-opioid receptor = κ-opioid receptor (Homo sapiens (Human), UniProt P41145); assay: κ-opioid receptor [35S]GTPγS functional assay, U-2 OS cells; details: for Emax: relative to U69,593, U-2 OS cells
Description: κ-Opioid Receptor Functional Assay Procedures: Functional [^35S]GTPγS binding assays were conducted as follows. κ opioid receptor membrane solution was prepared by sequentially adding final concentrations of 0.026 μg/μl κ membrane protein (in-house), 10 μg/mL saponin, 3 μM GDP and 0.20 nM [^35S]GTPγS to binding buffer (100 mM NaCl, 10 mM MgCl2, 20 mM HEPES, pH 7.4) on ice. The prepared membrane solution (190 μl/well) was transferred to 96-shallow well polypropylene plates containing 10 μl of 20× concentrated stock solutions of agonist prepared in DMSO. Plates were incubated for 30 min at a temperature of about 25° C. with shaking. Reactions were terminated by rapid filtration onto 96-well Unifilter GF/B filter plates (Perkin Elmer, Shelton, Conn.) using a 96-well tissue harvester (Packard) and followed by three filtration washes with 200 μl ice-cold binding buffer (10 mM NaH2PO4, 10 mM Na2HPO4, pH 7.4). Filter plates were subsequently dried at 50° C. for 2-3 hours. Fifty μl/well scintillation cocktail (Perkin Elmer, Shelton, Conn.) was added and plates were counted in a Packard Top-Count for 1 min/well.
κ-Opioid Receptor Functional Data: κ GTP EC50 is the concentration of a compound providing 50% of the maximal response for the compound at a κ receptor.
κ GTP Emax (%) is the maximal effect elicited by a compound relative to the effect elicited by U69,593.
(§1) The following TABLE 3 provides results on the activity response of certain Compounds of the Invention at the μ- and κ-opioid receptors determined as described above using U-2 OS cells.

μ-opioid receptor [1] = target: T1, μ-opioid receptor (Homo sapiens (Human), UniProt P35372); assay: μ-opioid receptor [35S]GTPγS functional assay, U-2 OS cells; details: for Emax: relative to DAMGO, U-2 OS cells
Description: (§2) μ-Opioid Receptor Functional Assay Procedures: [^35S]GTPγS functional assays were conducted using freshly thawed μ-receptor membranes prepared in-house from a cell line expressing recombinant μ opioid receptor in a HEK-293, CHO or U-2 OS cell background, or purchased from a commercial source (Perkin Elmer, Shelton, Conn.; or DiscovRx, Fremont, Calif.). Assay reactions were prepared by sequentially adding the following reagents to binding buffer (100 mM NaCl, 10 mM MgCl2, 20 mM HEPES, pH 7.4) on ice (final concentrations indicated): membrane protein (0.026 mg/mL), saponin ([…]), GDP ([…]) and [^35S]GTPγS (0.20 nM; Perkin Elmer, Shelton, Conn.). The prepared membrane solution (190 μl/well) was transferred to 96-shallow well polypropylene plates containing 10 μl of 20× concentrated stock solutions of the agonist [D-Ala^2, N-methyl-Phe^4 Gly-ol^5]-enkephalin (DAMGO) prepared in dimethyl sulfoxide (DMSO). Plates were incubated for 30 min at about 25° C. with shaking. Reactions were terminated by rapid filtration onto 96-well Unifilter GF/B filter plates (Perkin Elmer, Shelton, Conn.) using a 96-well tissue harvester (Perkin Elmer, Shelton, Conn.) followed by three filtration washes with 200 μl of ice-cold wash buffer (10 mM NaH2PO4, 10 mM Na2HPO4, pH 7.4). Filter plates were subsequently dried at 50° C. for 2-3 hours. BetaScint scintillation cocktail (Perkin Elmer, Shelton, Conn.) was added (50 μl/well) and plates were counted using a Packard Top-Count for 1 min/well. Data were analyzed using the sigmoidal dose-response curve fitting functions in GraphPad PRISM v. 3.0, or an in-house function for non-linear, sigmoidal dose-response curve-fitting.
(§3) μ-Opioid Receptor Functional Data: μ GTP EC50 is the concentration of a compound providing 50% of the maximal response for the compound at a μ-opioid receptor.
(§4) μ GTP Emax (%) is the maximal effect elicited by a compound relative to the effect elicited by DAMGO, a standard μ agonist. Generally, the μ GTP Emax (%) value measures the efficacy of a compound to treat or prevent pain or other Conditions.
as §1

μ-opioid receptor [2] = target: T1, μ-opioid receptor; assay: μ-opioid receptor [35S]GTPγS functional assay, HEK-293 or CHO cells
Description: as §2, §3, §4
In TABLE 2, activity response of certain Compounds of the Invention to the μ-, δ- and κ-opioid receptors was determined as described above for functional assays using HEK-293 or CHO cells.

[3] = relative to DAMGO, HEK-293 or CHO cells

Structure (SMILES) | EC50 (κ-opioid receptor) [nM] | Emax (κ-opioid receptor) [%] | EC50 (μ-opioid receptor [1]) [nM] | Emax (μ-opioid receptor [1]) [%] | EC50 (μ-opioid receptor [2]) [µM] | Emax (μ-opioid receptor [2]; [3]) [%] | EC50 (μ-opioid receptor [2]; GTPγS, HEK-293 or CHO cells, bound given in μM, read-out: μ EC50) [µM] | μ Emax (%) (μ-opioid receptor [2]; [3])
COc1ccc2c(c1)[C@]13CCN[C@H](C2)[C@]1(O)Cc1cc(C(N)=O)c(=O)[nH]c1C3 [Compound 32, (6R,6aS,12aR)-6a-hydroxy-2-methoxy-10-oxo-6,6a,7,10,11,12-hexahydro-5H-6,12a-(epiminoethano)naphtho[2,1-g]quinoline-9-carboxamide] | > 20000 | 6.7 ± 6.56 | > 20000 | 17.5 | – | – | – | –
NC(=O)c1cc2c([nH]c1=O)C[C@]13CCN(CC(F)(F)F)[C@H](Cc4ccc(O)cc41)[C@]3(O)C2 [Compound 34, (6R,6aS,12aR)-2,6a-dihydroxy-10-oxo-15-(2,2,2-trifluoroethyl)-6,6a,7,10,11,12-hexahydro-5H-6,12a-(epiminoethano)naphtho[2,1-g]quinoline-9-carboxamide] | > 20000 | 0 | > 20000 | 8.5 | – | – | – | –
NC(=O)c1cc2c([nH]c1=O)C[C@]13CCN(CCF)[C@H](Cc4ccc(O)cc41)[C@]3(O)C2 [Compound 35, (6R,6aS,12aR)-15-(2-fluoroethyl)-2,6a-dihydroxy-10-oxo-6,6a,7,10,11,12-hexahydro-5H-6,12a-(epiminoethano)naphtho[2,1-g]quinoline-9-carboxamide] | 93.7 ± 27.7 | 66 ± 1.53 | > 20000 | 2.5 | – | – | – | –
CN1CC[C@]23Cc4c(cc(C(N)=O)c(=O)n4C)C[C@@]2(O)[C@H]1Cc1ccc(O)cc13 [Compound 39, (6R,6aS,12aR)-2,6a-dihydroxy-11,15-dimethyl-10-oxo-6,6a,7,10,11,12-hexahydro-5H-6,12a-(epiminoethano)naphtho[2,1-g]quinoline-9-carboxamide] | 641.6 ± 3.49 | 54 ± 3.61 | 164 ± 59 | 33.7 ± 8.01 | – | – | – | –
COc1ccc2c(c1)[C@]13CCN(C)[C@H](C2)[C@]1(O)Cc1cc(C(=O)O)c(=O)[nH]c1C3 [Compound 40, (6R,6aS,12aR)-6a-hydroxy-2-methoxy-15-methyl-10-oxo-6,6a,7,10,11,12-hexahydro-5H-6,12a-(epiminoethano)naphtho[2,1-g]quinoline-9-carboxylic acid] | > 20000 | 96 ± 1.53 | 13900 ± 1630 | 72 ± 4.16 | – | – | – | –
CN1CC[C@]23Cc4[nH]c(=O)c(C(=O)O)cc4C[C@@]2(O)[C@H]1Cc1ccc(O)cc13 [Compound 41, (6R,6aS,12aR)-2,6a-dihydroxy-15-methyl-10-oxo-6,6a,7,10,11,12-hexahydro-5H-6,12a-(epiminoethano)naphtho[2,1-g]quinoline-9-carboxylic acid] | 568 ± 33.3 | 70 ± 4.58 | 111 ± 8.9 | 58.2 ± 2.32 | – | – | – | –
CN1CC[C@]23Cc4[nH]c(=O)c(C(=O)NCC5CCCCC5)cc4C[C@@]2(O)[C@H]1Cc1ccc(O)cc13 [Compound 44, (6R,6aS,12aR)—N-(cyclohexylmethyl)-2,6a-dihydroxy-15-methyl-10-oxo-6,6a,7,10,11,12-hexahydro-5H-6,12a-(epiminoethano)naphtho[2,1-g]quinoline-9-carboxamide] | 92.5 ± 24.2 | 67 ± 1 | 439 ± 27.4 | 88.3 ± 0.88 | – | – | – | –
CN1CC[C@]23Cc4[nH]c(=O)c(C(=O)NCc5ccccc5)cc4C[C@@]2(O)[C@H]1Cc1ccc(O)cc13 [Compound 45, (6R,6aS,12aR)—N-benzyl-2,6a-dihydroxy-15-methyl-10-oxo-6,6a,7,10,11,12-hexahydro-5H-6,12a-(epiminoethano)naphtho[2,1-g]quinoline-9-carboxamide] | 128 ± 8.96 | 94.3 ± 5.61 | 306 ± 25.2 | 90 ± 1.53 | – | – | – | –
CN(C)C(=O)c1cc2c([nH]c1=O)C[C@]13CCN(C)[C@H](Cc4ccc(O)cc41)[C@]3(O)C2 [Compound 46, (6R,6aS,12aR)-2,6a-dihydroxy-N,N,15-trimethyl-10-oxo-6,6a,7,10,11,12-hexahydro-5H-6,12a-(epiminoethano)naphtho[2,1-g]quinoline-9-carboxamide] | 624 ± 83.6 | 73 ± 6.99 | 157 ± 16.4 | 84.7 ± 2.19 | – | – | – | –
CN1CC[C@]23Cc4[nH]c(=O)c(C(=O)N5CCOCC5)cc4C[C@@]2(O)[C@H]1Cc1ccc(O)cc13 [Compound 47, (6R,6aS,12aR)-2,6a-dihydroxy-15-methyl-9-(morpholine-4-carbonyl)-6a,7,11,12-tetrahydro-5H-6,12a-(epiminoethano)naphtho[2,1-g]quinolin-10(6H)-one] | 511 ± 139 | 50 ± 2.74 | 156 ± 12.7 | 82 ± 1.73 | – | – | – | –
O=C(c1cc2c([nH]c1=O)C[C@]13CCN(CC4CC4)[C@H](Cc4ccc(O)cc41)[C@@H]3C2)N1CCS(=O)(=O)CC1 [Compound 60, (6R,6aR,12aS)-15-(cyclopropylmethyl)-9-(1,1-dioxidothiomorpholine-4-carbonyl)-2-hydroxy-6,6a,7,12-tetrahydro-5H-6,12a-(epiminoethano)naphtho[2,1-g]quinolin-10(11H)-one] | – | – | – | – | > 20 | -1 ± 1 | – | –
O=C(N[C@@H]1c2ccccc2C[C@@H]1O)c1cc2c([nH]c1=O)C[C@]13CCN(CC4CC4)[C@H](Cc4ccc(O)cc41)[C@@H]3C2 [Compound 61, (6R,6aR,12aS)-15-(cyclopropylmethyl)-2-hydroxy-N-((1R,2S)-2-hydroxy-2,3-dihydro-1H-inden-1-yl)-10-oxo-6,6a,7,10,11,12-hexahydro-5H-6,12a-(epiminoethano)naphtho[2,1-g]quinoline-9-carboxamide] | – | – | – | – | > 20 | -1 | – | –
O=C(N[C@H]1c2ccccc2C[C@H]1O)c1cc2c([nH]c1=O)C[C@]13CCN(CC4CC4)[C@H](Cc4ccc(O)cc41)[C@@H]3C2 [Compound 62, (6R,6aR,12aS)-15-(cyclopropylmethyl)-2-hydroxy-N-((1S,2R)-2-hydroxy-2,3-dihydro-1H-inden-1-yl)-10-oxo-6,6a,7,10,11,12-hexahydro-5H-6,12a-(epiminoethano)naphtho[2,1-g]quinoline-9-carboxamide] | – | – | – | – | > 20 | -1 | – | –
CN(C(=O)c1cc2c([nH]c1=O)C[C@]13CCN(CC4CC4)[C@H](Cc4ccc(O)cc41)[C@@H]3C2)C1CCCCC1 [Compound 63, (6R,6aR,12aS)—N-cyclohexyl-15-(cyclopropylmethyl)-2-hydroxy-N-methyl-10-oxo-6,6a,7,10,11,12-hexahydro-5H-6,12a-(epiminoethano)naphtho[2,1-g]quinoline-9-carboxamide] | – | – | – | – | > 20 | -1 | – | –
O=C(c1cc2c([nH]c1=O)C[C@]13CCN(CC4CC4)[C@H](Cc4ccc(O)cc41)[C@@H]3C2)N1Cc2ccccc2C1 [Compound 64, (6R,6aR,12aS)-15-(cyclopropylmethyl)-2-hydroxy-9-(isoindoline-2-carbonyl)-6,6a,7,12-tetrahydro-5H-6,12a-(epiminoethano)naphtho[2,1-g]quinolin-10(11H)-one] | – | – | – | – | > 20 | 3.5 | – | –
O=C(c1cc2c([nH]c1=O)C[C@]13CCN(CC4CC4)[C@H](Cc4ccc(O)cc41)[C@@H]3C2)N1[C@@H]2CC[C@H]1C[C@@H](O)C2 [Compound 65, (6R,6aR,12aS)-15-(cyclopropylmethyl)-2-hydroxy-9-((1R,R,5S)-3-hydroxy-8-azabicyclo[3.2.1]octane-8-carbonyl)-6,6a,7,12-tetrahydro-5H-6,12a-(epiminoethano)naphtho[2,1-g]quinolin-10(11H)-one] | – | – | – | – | – | – | > 20 | 4.00
